Earlier results as cited in patent US20060009642A1, “Methods for the synthesis of substituted purines” (IRM LLC, a Delaware Limited Liability Company, priority 2001, published 2006).

System: cyclin-dependent kinase 1 (CDK1)
Settings: binds to the ATP-binding site; Arris et al., J. Med. Chem. 43, 2797 (2000)

inhibition of CDK1, mode of inhibition: competitive inhibitor
SMILES: Nc1nc(OCC2CCCCC2)c2[nH]cnc2n1 [O6-cyclohexylmethylguanine]
